{"source": "paper PMC7926471", "about": "(Viruses, 2021)", "key": {"[1]": {"tested_on": "HCoV-229E", "assay": "Viral replication inhibition assay: HCoV-229E in MRC5 cells, PFU assay", "assay_type": "cell-based, Human Coronavirus 229E"}, "[2]": {"tested_on": "HCoV-229E", "parameters": "method as in earlier work", "conditions": "Huh7 cells; cited from earlier work"}, "[3]": {"tested_on": "Vero E6 cells", "assay": "Cytotoxicity in Vero E6 cells (WST-1 assay among others)", "assay_type": "cell-based"}, "[4]": {"assay": "Cytotoxicity in MRC5 cells, MTT assay", "conditions": "human"}, "[5]": {"tested_on": "MRC5 cells", "assay": "Cytotoxicity in MRC5 cells, MTT assay", "conditions": "drugs tested against HCoV-229E"}, "[6]": {"assay": "in vitro", "conditions": "human"}, "[7]": {"tested_on": "MERS-CoV", "conditions": "in vitro; cited from earlier work"}, "[8]": {"conditions": "in vivo; cited from earlier work"}, "[9]": {"conditions": "single 500 mg oral dose; cited from earlier work"}, "[10]": {"tested_on": "SARS-CoV-2", "assay": "SARS-CoV-2 replication in Vero E6 cells, qRT-PCR of envelop (E) gene"}, "[11]": {"tested_on": "lung cancer", "conditions": "nasal administration; cited from earlier work"}, "[12]": {"tested_on": "SARS-CoV-2", "conditions": "cited from earlier work"}, "[13]": {"tested_on": "SARS-CoV-2", "conditions": "especially in primary human bronchial epithelium cells; cited from earlier work"}, "[14]": {"assay": "Cytotoxicity in Vero E6 cells (WST-1 assay among others)", "assay_type": "cell-based", "conditions": "African green monkey; Vero E6 cells, 48 h"}, "[15]": {"tested_on": "SARS-CoV-2", "conditions": "SARS-CoV-2 infection; cited from earlier work"}, "[16]": {"tested_on": "HCoV-229E, SARS-CoV and MERS-CoV", "conditions": "cited from earlier work"}, "[17]": {"conditions": "Human coronavirus 229E, MRC5, 48 h, HCoV-229E in MRC5 cells, high titer MOI = 1, PFU assay after 48 h, read-out: EC50"}, "[18]": {"conditions": "SARS-CoV-2 in Vero E6 cells, qRT-PCR after 48 h"}}, "note": "“Also recorded” adds a separate entry of the source. Read-outs that look alike come from different tables or passages of the source.", "data": [{"smiles": "CCN(CC)CCCC(C)Nc1ccnc2cc(Cl)ccc12", "note": "(stereo not shown) [Chloroquine, chloroquine diphosphate]", "values": [{"measurement": "reduction of the viral titer", "setting": "[1]; HCoV-229E", "value": 60, "unit": "%"}, {"measurement": "EC50", "setting": "[1]; [17]", "value": 0.005, "unit": "mM"}, {"measurement": "HCoV-229E replication, low viral load (in words)", "setting": "[1]; MOI = 0.01, Figure 2", "value": "inhibits HCoV-229E replication"}, {"measurement": "effect of combinatory treatment on HCoV-229E (in words)", "setting": "[1]; combinations of lopinavir/ritonavir, chloroquine, resveratrol, MOI 0.01, Figure 2B", "value": "did not observe a synergistic effect"}, {"measurement": "effect when cells were treated before or after the infection (in words)", "setting": "[1]; pre-treated 3 h or post-treated 4 h, MOI 1, Figure 3", "value": "did not observe a significant difference"}, {"measurement": "EC50", "setting": "[2]", "value": 3.3, "unit": "µM"}, {"measurement": "cytotoxicity on Vero E6 cells (in words)", "setting": "[3]; 48 h", "value": "toxic; also recorded: high cytotoxicity"}]}, {"smiles": "CCN(CC)C(=S)SSC(=S)N(CC)CC", "note": "[Disulfiram, disulfiram]", "values": [{"measurement": "CC50 at 48 h", "setting": "[4]; MRC5 cells", "value": 8.4, "unit": "µM"}, {"measurement": "cytotoxicity (in words)", "setting": "[5]", "value": "highly cytotoxic"}, {"measurement": "SI (selectivity index, CC50/EC50)", "setting": "[1]; HCoV-229E, MRC5 cells", "value": 60.56}, {"measurement": "EC50", "setting": "[1]; [17]", "value": 0.000139, "unit": "mM"}]}, {"smiles": "CN(C)C(=O)C(CCN1CCC(O)(c2ccc(Cl)cc2)CC1)(c1ccccc1)c1ccccc1", "note": "[Loperamide, loperamide]", "values": [{"measurement": "CC50 at 48 h", "setting": "[4]", "value": 10.1, "unit": "µM"}, {"measurement": "cytotoxicity (in words)", "setting": "[5]", "value": "highly cytotoxic"}]}, {"smiles": "CO[C@H]1C[C@@H]2CC[C@@H](C)[C@@](O)(O2)C(=O)C(=O)N2CCCC[C@H]2C(=O)O[C@H]([C@H](C)C[C@@H]2CC[C@@H](O)[C@H](OC)C2)CC(=O)[C@H](C)/C=C(\\C)[C@@H](O)[C@@H](OC)C(=O)[C@H](C)C[C@H](C)/C=C/C=C/C=C/1C", "note": "[Rapamycin, rapamycin]", "values": [{"measurement": "CC50 at 48 h", "setting": "[6]", "value": 2.5, "unit": "µM"}, {"measurement": "cytotoxicity (in words)", "setting": "[5]", "value": "highly cytotoxic"}, {"measurement": "EC50", "setting": "[1]; Human coronavirus 229E, MRC5, 48 h", "value": 0.00228, "unit": "mM"}, {"measurement": "reduction of MERS-CoV infection", "setting": "[7]", "value": "over 60%"}]}, {"smiles": "Oc1ccc(/C=C/c2cc(O)cc(O)c2)cc1", "note": "[Resveratrol, resveratrol]", "values": [{"measurement": "bioavailability (in words)", "setting": "[8]", "value": "poor bioavailability"}, {"measurement": "Tmax", "setting": "[9]", "value": 1.3, "unit": "h"}, {"measurement": "reduction of the viral titer", "setting": "[1]; HCoV-229E", "value": 80, "unit": "%"}, {"measurement": "inhibition of SARS-CoV-2 replication", "setting": "[10]; 25 µM, Vero E6 cells", "value": 3, "unit": "logs"}, {"measurement": "EC50", "setting": "[10]; [18]", "value": 10.7, "unit": "µM"}, {"measurement": "EC90", "setting": "[10]; [18]", "value": 11.4, "unit": "µM"}, {"measurement": "reduction of tumor multiplicity", "setting": "[11]", "value": 27, "unit": "%"}, {"measurement": "reduction of tumor volume", "setting": "[11]", "value": 45, "unit": "%"}, {"measurement": "EC50", "setting": "[12]", "value": 4.48, "unit": "µM"}, {"measurement": "replication of SARS-CoV-2 (in words)", "setting": "[13]", "value": "inhibited the replication"}, {"measurement": "CC50 at 48 h", "setting": "[14]", "value": 48.2, "unit": "µM"}, {"measurement": "non-cytotoxic doses", "setting": "[3]; in vitro, Vero E6", "value": "up to 25 µM"}]}, {"smiles": "CCCC(CCC)C(=O)O", "note": "[VPA, valproic acid]", "values": [{"measurement": "CC50 at 48 h", "setting": "[4]; MRC5 cells", "value": 4000, "unit": "µM"}, {"measurement": "cytotoxicity (in words)", "setting": "[5]", "value": "highly cytotoxic"}, {"measurement": "EC50", "setting": "[1]; Human coronavirus 229E, MRC5, 48 h, HCoV-229E in MRC5 cells, PFU assay after 48 h, value in mM", "value": 1.34, "unit": "mM"}]}, {"smiles": "CCN(CCO)CCCC(C)Nc1ccnc2cc(Cl)ccc12", "note": "(stereo not shown) [hydroxychloroquine]", "values": [{"measurement": "EC90", "setting": "[15]", "value": 5.47, "unit": "µM"}]}, {"smiles": "Cc1cccc(C)c1OCC(=O)N[C@@H](Cc1ccccc1)[C@@H](O)C[C@H](Cc1ccccc1)NC(=O)[C@H](C(C)C)N1CCCNC1=O", "note": "[lopinavir]", "values": [{"measurement": "EC50", "setting": "[1]; HCoV-229E in MRC5 cells, high titer MOI = 1, PFU assay after 48 h, read-out: EC50", "value": 0.0088, "unit": "mM"}, {"measurement": "EC50", "setting": "[1]; Human coronavirus 229E, MRC5, 48 h, HCoV-229E in MRC5 cells, high titer MOI = 1, PFU assay after 48 h", "value": 0.00881, "unit": "mM"}]}, {"smiles": "COc1cc(/C=C/c2ccc(O)cc2)cc(OC)c1", "note": "[pterostilbene]", "values": [{"measurement": "replication of SARS-CoV-2 (in words)", "setting": "[13]", "value": "inhibited the replication"}]}, {"smiles": "CC(C)c1nc(CN(C)C(=O)N[C@H](C(=O)N[C@@H](Cc2ccccc2)C[C@H](O)[C@H](Cc2ccccc2)NC(=O)OCc2cncs2)C(C)C)cs1", "note": "[ritonavir]", "values": [{"measurement": "anti-CoV activity (in words)", "setting": "[16]", "value": "no selective anti-CoV activity"}]}]}
